{"source": "patent US20090196863A1", "about": "“METHOD OF ANTIOXIDATION AND ANTIOXIDANT-FUNCTIONING WATER” (MIZ CO., LTD., priority 2001, published 2009)", "origin": "cited, not measured here", "settings": "normal temperature (20° C.) and atmospheric pressure", "data": [{"smiles": "[HH]", "note": "[molecular hydrogen]", "values": [{"measurement": "saturated solvent concentration", "value": "approximately 1.6 mg/L"}]}]}
